Results taken from ChEMBL document CHEMBL4118137, “Design, synthesis and antineoplastic activity of novel hybrids of podophyllotoxin and indirubin against human leukaemia cancer cells as multifunctional anti-MDR agents” (Bioorg Med Chem Lett, 2018).
Calls of active or inactive are those of the source. The rule behind the calls is not given here.

How the values were obtained:
[1] = system: K562/VCR; test: Cell cycle arrest in human K562/VCR cells assessed as accumulation at G1 phase at 0.05 uM after 48 hrs by propidium iodide staining-based flow cytometric method (reference value: 46.20%); assay type: functional
[2] = system: K562/VCR; test: Induction of apoptosis in human K562/VCR cells assessed as viable cells at 0.1 uM after 48 hrs by annexin-V-FITC/propidium iodide staining-based flow cytometric method (reference value: 91.05%); assay type: functional; details: read-out: Activity
[3] = system: K562/VCR; test: Induction of reactive oxygen species formation in human K562/VCR cells at 0.05 uM after 24 hrs by DCFH-DA staining-based flow cytometric method (reference value: 0.41%); assay type: functional
[4] = system: K562/VCR; test: Cell cycle arrest in human K562/VCR cells assessed as accumulation at G1 phase at 0.1 uM after 48 hrs by propidium iodide staining-based flow cytometric method (reference value: 46.20%); assay type: functional
[5] = system: K562/VCR; test: Induction of apoptosis in human K562/VCR cells assessed as downregulation of CDK1 expression at 0.1 uM after 48 hrs by Western blot method relative to beta-actin; assay type: functional
[6] = system: K562/VCR; test: Downregulation of P-gp expression in human K562/VCR cells at 0.1 uM after 48 hrs by Western blot method relative to beta-actin; assay type: functional
[7] = system: K562/VCR; test: Cell cycle arrest in human K562/VCR cells assessed as accumulation at S phase at 0.1 uM after 48 hrs by propidium iodide staining-based flow cytometric method (reference value: 46.02%); assay type: functional
[8] = system: K562/VCR; test: Induction of apoptosis in human K562/VCR cells assessed as necrotic cells at 0.1 uM after 48 hrs by annexin-V-FITC/propidium iodide staining-based flow cytometric method (reference value: 0.15%); assay type: functional
[9] = Resistance factor, ratio of IC50 for human K562/VCR cells to IC50 for human K562 cells; assay type: functional
[10] = system: K562/VCR; test: Antiproliferative activity against human K562/VCR cells after 72 hrs by CCK8 assay; assay type: functional, cell-based
[11] = system: K562/VCR; test: Induction of apoptosis in human K562/VCR cells assessed as late apoptotic cells at 0.05 uM after 48 hrs by annexin-V-FITC/propidium iodide staining-based flow cytometric method (reference value: 1.90%); assay type: functional
[12] = system: K562/VCR; test: Cell cycle arrest in human K562/VCR cells assessed as accumulation at G2 phase at 0.1 uM after 48 hrs by propidium iodide staining-based flow cytometric method (reference value: 7.78%); assay type: functional
[13] = system: K562/VCR; test: Induction of autophagy in human K562/VCR cells assessed as upregulation of LC3-2 expression at 0.1 uM after 48 hrs by Western blot method relative to beta-actin; assay type: functional
[14] = system: K562/VCR; test: Downregulation of MRP-1 expression in human K562/VCR cells at 0.1 uM after 48 hrs by Western blot method relative to beta-actin; assay type: functional
[15] = system: K562/VCR; test: Induction of apoptosis in human K562/VCR cells assessed as early apoptotic cells at 0.05 uM after 48 hrs by annexin-V-FITC/propidium iodide staining-based flow cytometric method (reference value: 6.90%); assay type: functional
[16] = system: K562/VCR; test: Induction of apoptosis in human K562/VCR cells assessed as viable cells at 0.05 uM after 48 hrs by annexin-V-FITC/propidium iodide staining-based flow cytometric method (reference value: 91.05%); assay type: functional; details: read-out: Activity
[17] = system: K562/VCR; test: Induction of autophagy in human K562/VCR cells assessed as upregulation of beclin-1 expression at 0.05 uM after 48 hrs by Western blot method relative to beta-actin; assay type: functional
[18] = system: K562/VCR; test: Induction of apoptosis in human K562/VCR cells assessed as upregulation of cleaved PARP expression at 0.05 uM after 48 hrs by Western blot method relative to beta-actin; assay type: functional
[19] = species on record: Homo sapiens; test: Inhibition of alpha-tubulin polymerization in human K562/VCR cells assessed as disruption of microtubule organization at 0.05 to 0.1 uM after 24 hrs by DAPI staining-based immunofluorescence assay; assay type: cell-based
[20] = target: RAC-alpha serine/threonine-protein kinase (Homo sapiens) (UniProt P31749); test: Inhibition of AKT phosphorylation in human K562/VCR cells at 0.1 uM after 48 hrs by Western blot method relative to beta-actin; assay type: cell-based
[21] = system: K562/VCR; test: Cell cycle arrest in human K562/VCR cells assessed as accumulation at G2 phase at 0.05 uM after 48 hrs by propidium iodide staining-based flow cytometric method (reference value: 7.78%); assay type: functional
[22] = system: K562/VCR; test: Cell cycle arrest in human K562/VCR cells assessed as accumulation at S phase at 0.05 uM after 48 hrs by propidium iodide staining-based flow cytometric method (reference value: 46.02%); assay type: functional
[23] = system: K562/VCR; test: Induction of apoptosis in human K562/VCR cells assessed as upregulation of cleaved PARP expression at 0.1 uM after 48 hrs by Western blot method relative to beta-actin; assay type: functional
[24] = system: K562; test: Antiproliferative activity against human K562 cells after 72 hrs by CCK8 assay; assay type: functional, cell-based; details: K562, 72 h
[25] = system: K562/VCR; test: Reduction in mitochondrial membrane potential in human K562/VCR cells at 0.05 uM after 48 hrs by JC1 probe-based flow cytometric method (reference value: 2.65%); assay type: functional; design: scale not given: the % may be the effect or the level left
[26] = system: K562/VCR; test: Reduction in mitochondrial membrane potential in human K562/VCR cells at 0.1 uM after 48 hrs by JC1 probe-based flow cytometric method (reference value: 2.65%); assay type: functional; design: scale not given: the % may be the effect or the level left
[27] = system: K562/VCR; test: Induction of autophagy in human K562/VCR cells assessed as upregulation of beclin-1 expression at 0.1 uM after 48 hrs by Western blot method relative to beta-actin; assay type: functional
[28] = system: K562/VCR; test: Induction of apoptosis in human K562/VCR cells assessed as downregulation of CDK1 expression at 0.05 uM after 48 hrs by Western blot method relative to beta-actin; assay type: functional
[29] = system: K562/VCR; test: Induction of autophagy in human K562/VCR cells assessed as upregulation of LC3-2 expression at 0.05 uM after 48 hrs by Western blot method relative to beta-actin; assay type: functional
[30] = system: K562/VCR; test: Induction of apoptosis in human K562/VCR cells assessed as necrotic cells at 0.05 uM after 48 hrs by annexin-V-FITC/propidium iodide staining-based flow cytometric method (reference value: 0.15%); assay type: functional
[31] = target: RAC-alpha serine/threonine-protein kinase (Homo sapiens) (UniProt P31749); test: Inhibition of AKT phosphorylation in human K562/VCR cells at 0.05 uM after 48 hrs by Western blot method relative to beta-actin; assay type: cell-based
[32] = system: K562/VCR; test: Induction of apoptosis in human K562/VCR cells assessed as late apoptotic cells at 0.1 uM after 48 hrs by annexin-V-FITC/propidium iodide staining-based flow cytometric method (reference value: 1.90%); assay type: functional
[33] = system: K562/VCR; test: Downregulation of P-gp expression in human K562/VCR cells at 0.05 uM after 48 hrs by Western blot method relative to beta-actin; assay type: functional
[34] = system: K562/VCR; test: Downregulation of MRP-1 expression in human K562/VCR cells at 0.05 uM after 48 hrs by Western blot method relative to beta-actin; assay type: functional
[35] = system: K562/VCR; test: Induction of reactive oxygen species formation in human K562/VCR cells at 0.1 uM after 24 hrs by DCFH-DA staining-based flow cytometric method (reference value: 0.41%); assay type: functional
[36] = target: T1, c-Jun N-terminal kinase, JNK (Homo sapiens) (UniProt P45983+P53779+P45984); test: Induction of JNK phosphorylation in human K562/VCR cells at 0.1 uM after 48 hrs by Western blot method relative to beta-actin; assay type: cell-based
[37] = target: T1, c-Jun N-terminal kinase, JNK (Homo sapiens); test: Induction of JNK phosphorylation in human K562/VCR cells at 0.05 uM after 48 hrs by Western blot method relative to beta-actin; assay type: cell-based
[38] = system: K562/VCR; test: Induction of apoptosis in human K562/VCR cells assessed as early apoptotic cells at 0.1 uM after 48 hrs by annexin-V-FITC/propidium iodide staining-based flow cytometric method (reference value: 6.90%); assay type: functional
[39] = system: K562/VCR; test: Induction of apoptosis in human K562/VCR cells assessed as downregulation of CDK2 expression at 0.1 uM after 48 hrs by Western blot method relative to beta-actin; assay type: functional
[40] = system: K562/VCR; test: Induction of apoptosis in human K562/VCR cells assessed as downregulation of CDK2 expression at 0.05 uM after 48 hrs by Western blot method relative to beta-actin; assay type: functional
[41] = system: K562/Adr; test: Antiproliferative activity against human K562/ADR cells after 72 hrs by CCK8 assay; assay type: functional, cell-based
[42] = system: HL-60; test: Cytotoxicity against human HL60 cells; assay type: functional, cell-based

Sequence of RAC-alpha serine/threonine-protein kinase (Homo sapiens) (P31749 whole entry): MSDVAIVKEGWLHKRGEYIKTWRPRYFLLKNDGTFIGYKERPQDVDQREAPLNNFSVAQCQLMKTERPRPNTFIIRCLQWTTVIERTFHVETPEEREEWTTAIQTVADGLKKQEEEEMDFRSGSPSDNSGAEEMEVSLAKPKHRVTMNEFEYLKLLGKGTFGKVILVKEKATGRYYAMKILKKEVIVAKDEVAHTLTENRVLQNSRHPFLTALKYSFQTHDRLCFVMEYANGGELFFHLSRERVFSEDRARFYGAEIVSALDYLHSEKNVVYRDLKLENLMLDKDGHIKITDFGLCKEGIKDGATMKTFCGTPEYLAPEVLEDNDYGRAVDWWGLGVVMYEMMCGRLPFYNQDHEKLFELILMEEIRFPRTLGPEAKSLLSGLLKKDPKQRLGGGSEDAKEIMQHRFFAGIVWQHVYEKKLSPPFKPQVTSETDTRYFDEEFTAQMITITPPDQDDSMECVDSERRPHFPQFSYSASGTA

SMILES: COc1cc([C@@H]2c3cc4c(cc3[C@H](OC(=O)CN3C(=O)/C(=C5\Nc6ccccc6C5=O)c5ccccc53)[C@H]3COC(=O)[C@H]23)OCO4)cc(OC)c1OC
- Activity [1]: 23.26%
- viability at 0.1 µM [2]: 52.4%
- Activity [3]: 24.27%
- Activity [4]: 17.33%
- fold change (FC) [5]: 0.32
- fold change (FC) [6]: 0.33
- Activity [7]: 25.7%
- Activity [8]: 0.1%
- Ratio IC50 [9]: 2.23
- IC50 [10]: 76 nM
- Activity [11]: 9.61%
- Activity [12]: 56.97%
- fold change (FC) [13]: 0.63
- fold change (FC) [14]: 0.24
- Activity [15]: 13.48%
- viability at 0.05 µM [16]: 76.8%
- fold change (FC) [17]: 0.52
- fold change (FC) [18]: 0.46
- inhibition [19]: Active
- fold change (FC) [20]: 0.43
- Activity [21]: 46.93%
- Activity [22]: 29.81%
- fold change (FC) [23]: 0.56
- IC50 [24]: 34 nM
- Activity [25]: 19.44%
- Activity [26]: 40.38%
- fold change (FC) [27]: 0.6
- fold change (FC) [28]: 0.44
- fold change (FC) [29]: 0.78
- Activity [30]: 0.07%
- fold change (FC) [31]: 0.6
- Activity [32]: 18.91%
- fold change (FC) [33]: 0.4
- fold change (FC) [34]: 0.31
- Activity [35]: 39.84%
- fold change (FC) [36]: 0.84
- fold change (FC) [37]: 0.7
- Activity [38]: 28.58%
- fold change (FC) [39]: 0.36
- fold change (FC) [40]: 0.44

SMILES: COc1cc([C@@H]2c3cc4c(cc3[C@H](OC(=O)CCN3C(=O)/C(=C5\Nc6ccccc6C5=O)c5ccccc53)[C@H]3COC(=O)[C@H]23)OCO4)cc(OC)c1OC
- Ratio IC50 [9]: 1.64
- IC50 [10]: 2140 nM
- IC50 [24]: 1300 nM

SMILES: COc1cc([C@@H]2c3cc4c(cc3[C@H](OC(=O)CN3C(=O)C(=O)c5c(Br)cccc53)[C@H]3COC(=O)[C@H]23)OCO4)cc(OC)c1OC
- IC50 [41]: 67 nM

SMILES: CN(C)CCN1C(=O)/C(=C2\Nc3ccccc3C2=O)c2ccccc21
- IC50 [42]: 3560 nM

SMILES: COc1cc([C@@H]2c3cc4c(cc3[C@@H](O[C@@H]3O[C@@H]5CO[C@@H](C)O[C@H]5[C@H](O)[C@H]3O)[C@H]3COC(=O)[C@H]23)OCO4)cc(OC)c1O [ETOPOSIDE]
- Ratio IC50 [9]: 15.49
- IC50 [10]: 11800 nM
- IC50 [24]: 764 nM
